The values that follow come from US9302967B2, “Substituted cathechols as inhibitors of IL-4 and IL-5 for the treatment of bronchial asthma” (Council of Scientific & Industrial Research, priority 2011, dated 2016).

Structures are written as SMILES.

One data set deals with IL-5. The data set can be described thus: PHA-stimulated human PBMC, IL-5 in supernatant by Cytometric Bead Array. Type of data set: cell-based. The settings on record: Homo sapiens, PHA 10 μg/ml, read-out: IC50 inhibitory activity, stimulation-induced IL-5. As for the experimental part:
(§1) Normal human peripheral blood mononuclear cells (PBMC) were stimulated with phytohemagglutinin (PHA) 10 μg/ml in the presence and absence of varying concentrations of compounds of formula I and II. Culture supernatants were harvested and IIL-4 and IL-5 cytokines were quantitated by Cytometric Bead Array (CBA™) kit (Becton Dickinson, USA) following manufacturers instructions using a Flow Cytometer (BD LSR, Becton Dickinson) and CBA™ analysis software (Becton Dickinson).

A further data set has as its system IL-4. The data set can be described thus: PHA-stimulated human PBMC, IL-4 in supernatant by Cytometric Bead Array. Type of data set: cell-based. The settings on record: PHA 10 μg/ml, read-out: IC50 inhibitory activity, stimulation-induced IL-4. How it is done: as §1

Broadly, the IC50 is the concentration needed to halve the response being measured. As a reminder, the melting point is the temperature of the solid-liquid transition. For the molecule `C=CCc1cccc(OC(C)=O)c1OC(C)=O` [Compound 19, 3-allyl-1,2-phenylene diacetate], the melting point fell in the range of 58 to 60 °C. For the same molecule, the IC50 in the data set with IL-5 was 35 µM. In addition, the half-inhibitory concentration (IC50) in the data set with IL-4 came to 30 µM.
For the molecule `C=CCc1cccc(O)c1O` [Compound 16, 3-allyl-benzene-1,2-diol], the half-maximal inhibitory concentration (IC50) in the data set on IL-5 and with IL-4 was 30 µM throughout.
As to `C=CCc1ccc(OC(C)=O)c(OC(C)=O)c1` [Compound 7, 4-allyl-1,2-phenylene diacetate], the IC50 in the data set on IL-5 and in the data set on IL-4 was 4 µM each time.
